Among the data in US9925189B2, “Heterocyclic receptor agonists for the treatment of diabetes and metabolic disorders” (CymaBay Therapeutics, Inc., priority 2006, dated 2018) are activation values, retold here.

Molecules are shown by their SMILES.

This experiment concerns the target T1, IC-GPCR2 (Homo sapiens, UniProt Q8TDV5, S309L).
T1 construct: expressed in transfected cells
T1 sequence (Q8TDV5 1-335 S309L): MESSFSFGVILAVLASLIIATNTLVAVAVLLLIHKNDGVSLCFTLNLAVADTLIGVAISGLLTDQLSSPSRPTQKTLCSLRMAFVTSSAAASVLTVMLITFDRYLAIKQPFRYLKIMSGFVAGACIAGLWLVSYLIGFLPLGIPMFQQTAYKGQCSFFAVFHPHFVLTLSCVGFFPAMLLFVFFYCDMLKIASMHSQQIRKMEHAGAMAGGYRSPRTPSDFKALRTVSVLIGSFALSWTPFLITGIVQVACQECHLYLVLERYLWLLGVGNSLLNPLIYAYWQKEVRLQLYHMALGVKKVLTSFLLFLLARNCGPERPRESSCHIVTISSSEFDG
Nature of the experiment: Stimulation of cAMP in CHO cells stably expressing IC-GPCR2 (HTRF cAMP assay). It counts as cell-based. To be noted: 0.5 h, 30 minutes, IC-GPCR2 stably expressing CHO cells, read-out: Activity at 10 uM (% change in FRET signal from DMSO control). A digest of the protocol:
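CHO cells stably expressing IC-GPCR2, plated at 17500 cells/well, treated next day for 30 min in Ham's F12 with compounds at 6–8 concentrations from 0.00003 to 10 μM; parental CHO cells also screened. Intracellular cAMP read by HTRF competitive immunoassay (665/620 nm ratio). Activity given as % FRET change from DMSO control.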
For the compound `COc1cnc(N2CCC(c3nc(COc4ccc(-n5cnnn5)cc4)cs3)CC2)nc1` [Example 68, 5-Methoxy-2-{4-[4-(4-tetrazol-1-yl-phenoxymethyl)-thiazol-2-yl]-piperidin-1-yl}-pyrimidine], the activation at 10 µM worked out at 53%.

On to `CC(C)COC(=O)N1CCC(c2nc(COc3ccc(-n4cnnn4)cc3)cs2)CC1` [Example 30, 4-[4-(4-Tetrazol-1-yl-phenoxymethyl)-thiazol-2-yl]-piperidine-1-carboxylic acid isobutyl ester], for which the activation at 10 µM is 73%.

Take `COc1ccc(OC(=O)N2CCC(c3nc(COc4ccc(S(C)(=O)=O)cc4)cs3)CC2)cc1` [Example 28, 4-[4-(4-Methanesulfonyl-phenoxymethyl)-thiazol-2-yl]-piperidine-1-carboxylic acid 4-methoxy-phenyl ester]: the activation at 10 µM was found to be 62%.

Turning to `CCc1cnc(N2CCC(c3nc(CNc4ccc(-n5cnnn5)cc4)cs3)CC2)nc1` [Example 161, {2-[1-(5-Ethyl-pyrimidin-2-yl)-piperidin-4-yl]-thiazol-4-ylmethyl}-(4-tetrazol-1-yl-phenyl)-amine], the activation at 10 µM was determined as 79%.

Take `CC(C)(C)OC(=O)N1CCC(c2nc(COc3c(F)cc(-n4cnnn4)cc3F)cs2)CC1` [Example 112, 4-[4-(2,6-Difluoro-4-tetrazol-1-yl-phenoxymethyl)-thiazol-2-yl]-piperidine-1-carboxylic acid tert-butyl ester]: the activation at 10 µM amounted to 57%.

In the case of `CC(C)(C)OC(=O)N1CCC(c2nc(COc3ccc(S(C)(=O)=O)cc3)cs2)CC1` [Example 1, 4-[4-(4-Methanesulfonyl-phenoxymethyl)-thiazol-2-yl]-piperidine-1-carboxylic acid tert-butyl ester], the activation at 10 µM was determined as 69%.

Consider `CS(=O)(=O)c1ccc(OCc2csc(C3CCN(c4nc5ccccc5o4)CC3)n2)cc1` [Example 74, 2-{4-[4-(4-Methanesulfonyl-phenoxymethyl)-thiazol-2-yl]-piperidin-1-yl}-benzooxazole], for which the activation at 10 µM was 17%.

Consider `CCc1cnc(N2CCC(c3nc(COc4ccc(-n5nnnc5C)cc4)cs3)CC2)nc1` [Example 12, 5-Ethyl-2-(4-{4-[4-(5-methyl-tetrazol-1-yl)-phenoxymethyl]-thiazol-2-yl}-piperidin-1-yl)-pyrimidine], for which the activation at 10 µM stood at 70%.

Regarding `CC(C)(C)OC(=O)N1CCC(c2noc(COCc3ccccc3)n2)CC1` [Example 83, 4-(5-Benzyloxymethyl-[1,2,4]oxadiazol-3-yl)-piperidine-1-carboxylic acid tert-butyl ester], the activation at 10 µM was found to be 27%.

With `CCCN1CCC(c2nc(COc3ccc(-n4cnnn4)cc3)cs2)CC1` [Example 150, 1-Propyl-4-[4-(4-tetrazol-1-yl-phenoxymethyl)-thiazol-2-yl]-piperidine], the activation at 10 µM was found to be 32%.

As to `CCOC(=O)c1ccc(OCc2csc(C3CCN(C(=O)OC(C)(C)C)CC3)n2)cc1` [Example 129, 4-[4-(4-Ethoxycarbonyl-phenoxymethyl)-thiazol-2-yl]-piperidine-1-carboxylic acid tert-butyl ester], the activation at 10 µM is 43%.

For the compound `CC(C)(C)OC(=O)N1CCC(c2nc(COc3ccc(S(=O)(=O)C(F)(F)F)cc3)cs2)CC1` [Example 110, 4-[4-(4-Trifluoromethanesulfonyl-phenoxymethyl)-thiazol-2-yl]-piperidine-1-carboxylic acid tert-butyl ester], the activation at 10 µM amounted to 51%.

Turning to `CS(=O)(=O)c1ccc(OCc2csc(C3CCN(C(=O)c4cccnc4)CC3)n2)cc1` [Example 40, {4-[4-(4-Methanesulfonyl-phenoxymethyl)-thiazol-2-yl]-piperidin-1-yl}-pyridin-3-yl-methanone], the activation at 10 µM is 21%.

With `CC(=O)Nc1ccc(OCc2csc(C3CCN(C(=O)OC(C)(C)C)CC3)n2)cc1` [Example 3, 4-[4-(4-Acetylamino-phenoxymethyl)-thiazol-2-yl]-piperidine-1-carboxylic acid tert-butyl ester], the activation at 10 µM stood at 63%.

Consider `CCc1cnc(N2CC[C@@H](c3nc(COc4ccc(-n5cnnn5)cc4)cs3)[C@@H](C)C2)nc1` (stereo in doubt) [Example 199, 5-Ethyl-2-{3-methyl-4-[4-(4-tetrazol-1-yl-phenoxymethyl)-thiazol-2-yl]-piperidin-1-yl}-pyrimidine], for which the activation at 10 µM was found to be 78%.

For the compound `CCOC(=O)c1cnc(N2CCC(c3nc(COc4ccc(-n5cnnn5)cc4)cs3)CC2)s1` [Example 180, 2-{4-[4-(4-Tetrazol-1-yl-phenoxymethyl)-thiazol-2-yl]-piperidin-1-yl}-thiazole-5-carboxylic acid ethyl ester], the activation at 10 µM is 59%.

Take `CC(C)(C)OC(=O)N1CCC(c2nc(CNc3ccc(-n4cnnn4)cc3)cs2)CC1` [Example 114, 4-{4-[(4-Tetrazol-1-yl-phenylamino)-methyl]-thiazol-2-yl}-piperidine-1-carboxylic acid tert-butyl ester]: the activation at 10 µM worked out at 68%.

Regarding `Fc1cc(-n2cnnn2)ccc1OCc1csc(C2CCN(c3ncc(C(F)(F)F)cc3Cl)CC2)n1` [Example 194, 3′-Chloro-4-[4-(2-fluoro-4-tetrazol-1-yl-phenoxymethyl)-thiazol-2-yl]-5′-trifluoromethyl-3,4,5,6-tetrahydro-2H-[1,2′]bipyridinyl], the activation at 10 µM is 29%.

For the compound `Cc1ccc(S(=O)(=O)N2CCC(c3nc(COc4ccc(-n5cnnn5)cc4)cs3)CC2)cc1` [Example 156, 4-[4-(4-Tetrazol-1-yl-phenoxymethyl)-thiazol-2-yl]-1-(toluene-4-sulfonyl)-piperidine], the activation at 10 µM came out at 6%.

Regarding `C[C@H]1CN(C(=O)OC(C)(C)C)CC[C@H]1c1nc(COc2ccc(-n3cnnn3)cc2F)cs1` (stereo in doubt) [Example 145, 4-[4-(2-Fluoro-4-tetrazol-1-yl-phenoxymethyl)-thiazol-2-yl]-3-methyl-piperidine-1-carboxylic acid tert-butyl ester], the activation at 10 µM was 73%.

Regarding `CCc1cnc(N2CCC(c3nc(COc4ccc(N5CCOCC5)cc4)cs3)CC2)nc1` [Example 191, 4-(4-{2-[1-(5-Ethyl-pyrimidin-2-yl)-piperidin-4-yl]-thiazol-4-ylmethoxy}-phenyl)-morpholine], the activation at 10 µM was 74%.

Consider `CC(C)(C)OC(=O)N1CC(c2nc(COc3ccc(-n4cnnn4)cc3)cs2)C1` [Example 101, 3-[4-(4-tetrazol-1-yl-phenoxymethyl)-thiazol-2-yl]-azetidine-1-carboxylic acid tert-butyl ester], for which the activation at 10 µM worked out at 44%.

In the case of `Cc1cc(C(=O)O)nc(N2CCC(c3nc(COc4ccc(-n5cnnn5)cc4)cs3)CC2)n1` [Example 176, 6-Methyl-2-{4-[4-(4-tetrazol-1-yl-phenoxymethyl)-thiazol-2-yl]-piperidin-1-yl}-pyrimidine-4-carboxylic acid], the activation at 10 µM came out at 43%.

`CS(=O)(=O)N1CCC(c2nc(COc3ccc(-n4cnnn4)cc3)cs2)CC1` [Example 154, 1-Methanesulfonyl-4-[4-(4-tetrazol-1-yl-phenoxymethyl)-thiazol-2-yl]-piperidine]: the activation at 10 µM worked out at 66%.
